Activity calls are given as the source filed them. No cut-off for these calls is given here.
Assays:
[1] = tested on: Mycobacterium tuberculosis; test: Inhibition of Mycobacterium tuberculosis PKnGdeltaN mutant at 63 uM by autoradiography
[2] = tested on: Mycobacterium tuberculosis; test: Inhibition of Mycobacterium tuberculosis PKnG-I87S/A92S mutant at 25 uM by autoradiography

**Q.** Which Activity [1] does the source give for `NC(=O)c1c(NC(=O)C2CC2)sc2c1CCCC2` here?
**A.** Active

**Q.** And the inhibition [2]?
**A.** > 50%
